One experiment relates to hMSCs. Nature of the experiment: hMSCs to osteoblast differentiation. Type of experiment: cell-based, human. Here is the method:
The hMSCs and MC3T3-1E cell lines were seeded at 2.5×10^4 cells/well and 2.5×10^3 cells/well of 6-well plate respectively, containing 2 ml of normal cell culture media. The cell culture media were then replaced with osteogenic media containing 100 nM Dex, 10 mM β-Gly and 0.28 mM Asc with or without the HKUOT-S2 protein. The cells were maintained in the osteogenic media for 14 days with media replacement every 3 days. The nondifferentiated cells maintained in the normal cell culture media were used as controls. The cell pellets were then collected and processed for osteogenic gene expression analysis by qPCR at the experimental endpoints.
High Quality Total RNAs, with OD260/OD280 Between 1.98-2.00, were extracted from the in vitro experimented cell lines and the tissues harvested from the in vivo experiments using RNAiso plus reagent (Cat #9109) according to the manufacturer's protocol. The quality and quantity of the extracted RNAs were determined using the NanoDrop One (C) UV-VIS micro-volume spectrophotometer (Thermo Scientific). Equal amount of RNAs across the experimental groups were reverse transcribed into complementary DNA (cDNA) using the PrimeScript™ RT reagent Kit (cat #RR037A, Takara) and Peltier Thermal Cycler (Cat #PTC-100, MJ Research) according to the manufacturers' instructions. Specific primer pairs, equal amount of cDNA for the various experimental groups and the PowerUp™ SYBR™ Green Master Mix (Cat #A25742, Thermo Scientific) were used to prepare the qPCR reaction mix. 10 μl of the qPCR reaction mix of the control and HKUOT-S2 treatment groups, loaded into 96-well plate (0.2 ml) were used evaluate the HKUOT-S2-induced gene expressions in the cell lines from the in vitro and the harvested tissues from the in vivo experiments using the QuantStudio 5 real-time PCR system (Thermo Scientific). The HKUOT-S2-induced differentially gene expression fold changes were calculated by 2^−ΔΔCt method after housekeeping gene normalization.

Experiment [1] concerns ovariectomized (OVX) mice. Nature of the experiment: OVX-induced osteoporosis, femur μCT. Type of experiment: in vivo, mouse. Here is the method:
A total of 32 female C57BL/6J mice at the age of 8-12 weeks old and weighing between 22-25 g were used in this study. All mice underwent dorsoventral surgical operation under anesthesia. The sham control underwent surgery without ovary removal. The ovaries were completely removed from the anterior uterine horns in the OVX group. There were four groups, namely sham control (n=8), OVX control (n=8), OVX+30 μg kg^−1 estrogen (E2, n=8), and OVX+2.18 mg kg^−1 HKUOT-S2 (n=8) treatment groups. The sham and OVX control mice were given subcutaneous of 200 μl of 1XBP. The OVX+E2 and OVX+HKUOT-S2 groups were given 200 μl E2 and HKUOT-S2 via subcutaneous and IP injections respectively. All treatments started 4 hrs after the surgery and thrice per week for 4 weeks post-surgery. Micro CT (μCT) scans were taken on day zero and biweekly post-surgery. At the experimental endpoint, all the mice in the groups were sacrificed under overdose of anesthesia, the bone tissues harvested and processed for bone histomorphometry and immunohistochemical analyses.

A further experiment concerns mTOR1/4E-BP1/AKT1 axis. Nature of the experiment: XL388-induced mTOR inhibition during hMSCs-osteoblast differentiation (qPCR, western blot). The format is cell-based, human. Here is the method: hMSCs were differentiated into osteoblasts with/without […] XL388 or 0.1 μg ml^−1 HKUOT-S2 treatments for 7 days with medium replenishments every 3 days. The collected cell pellets were processed for qPCR and western blot analyses to establish the mechanism by which HKUOT-S2 promotes osteogenesis and new bone formation. The lists of all the genes and corresponding primer pairs as well as primary and secondary antibodies used for qPCR and western blot analyses are listed in Tables 6, 7 and 8.
A general note: Quantitative PCR measures a nucleic acid by following its amplification.

The mark [2] stands for this setting: 0.1 μg/ml HKUOT-S2, 0.01 μg/ml SEQ ID NO: 83.
Setting [3] is: femur of OVX mice, 2.18 mg/Kg HKUOT-S2, 0.5 mg/Kg SEQ ID NO: 83, n=3.
Where [4] appears, read: 250 nM XL388 alone, western blot.

“TKSSLPGQTK (HKUOT-S2 peptide) [SEQ ID NO: 83]”: the “osteogenic effects compared to the HKUOT-S2 treatment” value in the experiment with hMSCs is “robust”. In the experiment with hMSCs (setting [2]), the ALP activities result is on record as “significantly increased”, the “ALP mRNA expression” value is given as “increasing”, the “oestrogen receptor α (ERα) mRNA expression” value is “increasing” and the osteoblast biomineralization entry is “significantly increased”. In addition, the COL-1A expression result with hMSCs (0.01μ gml^−1) was “increasing”. For the same compound, the “osteoporosis suppression effects compared with the 2.18 mg/Kg HKUOT-S2 treatment group” value in experiment [1] (0.5 mg/Kg SEQ ID NO: 83, OVX mice) is given as “stronger”. Besides, in experiment [1] (setting [3]), the “bone surface area to bone volume ratio (BS/BV)” value is recorded as “decreased”, the “bone surface area to tissue volume (BS/TV) ratio” value is recorded as “significantly increasing”, the “bone volume (BV/TV)” value is listed as “significantly increasing” and the “trabecular number (Tb. N)” value is listed as “significantly increasing”. Further, in experiment [1] (setting [3]), the “trabecular separation (Tb. Sp)” value is “decreased” and the “trabecular thickness (Tb.th)” value is listed as “significantly increasing”.
With `Cc1c(C(=O)N2CCOc3ccc(-c4ccc(N)nc4)cc3C2)ccc(S(C)(=O)=O)c1F` [XL388], in the experiment with mTOR1/4E-BP1/AKT1 axis (125 nM XL388 alone, qPCR), the 4E-BP1 expression entry is on record as “significantly suppressed”, the AKT1 expression result is listed as “significantly suppressed”, the MTOR1 expression result is “significantly suppressed” and the RUNX2 expression result is given as “significantly suppressed”. The S6K1 expression result in the experiment on mTOR1/4E-BP1/AKT1 axis (125 nM XL388 alone, qPCR) is given as “significantly suppressed”. Besides, in the experiment with mTOR1/4E-BP1/AKT1 axis (setting [4]), the “phosphorylation of 4E-BP1” value is listed as “prevented” and the “phosphorylation of MTOR1” value is recorded as “prevented”. Besides, in the experiment on mTOR1/4E-BP1/AKT1 axis (XL388-induced mTOR inhibition), the ALP expression entry is on record as “no effects”.

These data come from US20260049109A1, “NOVEL IMMUNOMODULATORY, NEUROMODULATORY, OSTEOGENIC, AND ANTI-OSTEOPOROTIC HKUOT-S2 PROTEIN THAT ENHANCES BONE FRACTURE REPAIRS AND SUPPRESSES OSTEOPOROSIS DEVELOPMENT” (The University of Hong Kong, priority 2022, published 2026).
